Values of other authors, collected in US20110144044A1, “Composition and method for increasing post workout recovery” (priority 2009, published 2011).

What was measured:
[1] = system: rats; conditions: CNS administration
[2] = system: subjects
[3] = after caffeine ingestion 6 mg/kg, intense exercise

SMILES	run time to fatigue [1]	increase in treadmill run time to fatigue [1]	muscle lactate concentration [2, 3]	net muscle glycogenolysis [2, 3]	plasma epinephrine concentration [2, 3]	endurance ([2]; caffeine 6 mg/kg ingested vs placebo, cycling to voluntary exhaustion)
CCNC(=O)[C@H]1O[C@@H](n2cnc3c(N)ncnc32)[C@H](O)[C@@H]1O [NECA, 5′-N-ethylcarboxamidoadenosine]	significantly reduced run time to fatigue	–	–	–	–	–
Cn1c(=O)c2c(ncn2C)n(C)c1=O [caffeine]	–	approximately 60%	increased	unaffected	increased	significant increase in endurance
